In US20260285853A1, “COMPOUNDS AND METHODS FOR MODULATING SPLICING” (REMIX THERAPEUTICS INC., priority 2023, published 2026):

Assays:
Type in all cases: cell-based
[1] = system: HTT mRNA; assay: Splicing RT-qPCR assay, canonical (CJ) and alternative (AJ) junction mRNA, K562 cells; conditions: Homo sapiens, K562.3 cells, 24 hours; for AC50: read-out: HTT AJ (AC50, increase in AJ mRNA); for IC50: read-out: HTT CJ (IC50, decrease in CJ mRNA)
Procedure, shortened: (§1)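 RT-qPCR read-out: CJ and AJ isoforms quantified by ΔCt against GAPDH or GUSB, normalized to DMSO, and converted to % response. Windows in 96-well format (50,000 cells/well) were 4.0 ΔCt for MYB-CJ and 3 for MYB-AJ, and 3.5 ΔCt for HTT-CJ and 9 for HTT-AJ. Cells were dosed for 24 h, top 10 uM.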

[2] = system: MYB mRNA; assay: as above; conditions: Homo sapiens, K562.3 cells, 24 hours; for AC50: read-out: MYB AJ (AC50, increase in AJ mRNA); for IC50: read-out: MYB CJ (IC50, decrease in CJ mRNA)
Procedure, shortened: as §1

[3] = system: HTT mRNA; assay: Splicing RT-qPCR assay (THP), Table 2A; conditions: Table 2A (THP); for AC50: AJ mRNA increase, read-out: HTT AJ (increase in alternative junction mRNA, AC50); for IC50: CJ mRNA decrease, read-out: HTT CJ (decrease in canonical junction mRNA, IC50)
[4] = system: MYB mRNA; assay: Splicing RT-qPCR assay (THP), Table 2A; conditions: Table 2A (THP); for AC50: AJ mRNA increase, read-out: MYB AJ (increase in alternative junction mRNA, AC50); for IC50: CJ mRNA decrease, read-out: MYB CJ (decrease in canonical junction mRNA, IC50)

SMILES | IC50 [1] [nM] | IC50 [2] [nM] | IC50 [3] [nM] | IC50 [4] [nM] | AC50 [1] [nM] | AC50 [2] [nM] | AC50 [3] [nM] | AC50 [4] [nM]
Cc1cn2cc(NS(=O)(=O)c3ccc(N4C[C@@H](C)N[C@@H](C)C4)c4cn(C)nc34)cc(F)c2n1 [Compound 279] | > 10000 | > 10000 | > 10000 | > 10000 | > 10000 | > 10000 | > 10000 | > 10000
Cc1cn2cc(NC(=O)c3ccc(N4C[C@@H](C)N[C@@H](C)C4)c4nnn(C)c34)cc(F)c2n1 [Compound 261, 7-[(3R,5S)-3,5-dimethylpiperazin-1-yl]-N-(8-fluoro-2-methyl-imidazo[1,2-a]pyridin-6-yl)-3-methyl-benzotriazole-4-carboxamide] | > 10000 | > 10000 | > 10000 | > 10000 | > 10000 | > 10000 | > 10000 | > 10000
CCNC1CCN(c2ccc(C(=O)Nc3cc(C)c4nc(C)cn4n3)c3nn(C)cc23)CC1 [Compound 186, N-(2,8-dimethylimidazo [1,2-b]pyridazin-6-yl)-4-[4-(ethylamino)-1-piperidyl]-2-methyl-indazole-7-carboxamide] | 100 to 1000 | 100 to 1000 | 100 to 1000 | 100 to 1000 | 100 to 1000 | 100 to 1000 | 100 to 1000 | 100 to 1000
Cc1cn2cc(NC(=O)c3ccc(N4C[C@@H](C)N[C@@H](C)C4)c4[nH]c(C)nc34)cc(F)c2n1 [Compound 225, 7-[(3R,5S)-3,5-dimethylpiperazin-1-yl]-N-(8-fluoro-2-methylimidazo[1,2-a]pyridin-6-yl)-2-methyl-1H-1,3-benzodiazole-4-carboxamide] | 1000 to 10000 | 1000 to 10000 | 1000 to 10000 | 100 to 1000 | 1000 to 10000 | 1000 to 10000 | > 10000 | 1000 to 10000
CCNC1CCN(c2ccc(C(=O)Nc3cc(F)c4nn(C)cc4c3)c3nn(C)cc23)CC1 [Compound 182, 4-(4-(ethylamino)piperidin-1-yl)-N-(7-fluoro-2-methyl-2H-indazol-5-yl)-2-methyl-2H-indazole-7-carboxamide] | 1000 to 10000 | < 100 | 1000 to 10000 | < 100 | 1000 to 10000 | 100 to 1000 | 1000 to 10000 | < 100
CCNC1CCN(c2ccc(C(=O)Nc3cc4cn(C)nc4cc3OC)c3[nH]ccc23)CC1 [Compound 178, 4-[4-(ethylamino)-1-piperidyl]-N-(6-methoxy-2-methyl-indazol-5-yl)-1H-indole-7-carboxamide] | > 10000 | > 10000 | > 10000 | > 10000 | > 10000 | > 10000 | > 10000 | > 10000
Cc1cn2cc(NC(=O)c3ccc(N4CCNC(C(F)(F)F)C4)c4cn(C)nc34)cc(F)c2n1 (centres unmarked) [Compound 248, N-(8-fluoro-2-methyl-imidazo[1,2-a]-pyridin-6-yl)-2-methyl-4-[3-(trifluoro-methyl)piperazin-1-yl]indazole-7-carboxamide] | > 10000 | 1000 to 10000 | > 10000 | > 10000 | > 10000 | 1000 to 10000 | > 10000 | 1000 to 10000
CCN[C@@H]1CCN(c2cc(O)c(C(=O)Nc3cc(F)c4nc(C)cn4c3)c3nn(C)cc23)C1 [Compound 144, 4-[3-(ethylamino)pyrrolidin-1-yl]-N-(8-fluoro-2-methyl-imidazo[1,2-a]pyridin-6-yl)-6-hydroxy-2-methyl-indazole-7-carboxamide] | > 10000 | < 100 | > 10000 | < 100 | > 10000 | < 100 | > 10000 | < 100
CNC1(C)CCN(c2cc(F)c(C(=O)Nc3cc(F)c4nc(C)cn4c3)c3nn(C)cc23)CC1 [Compound 179, 6-fluoro-N-(8-fluoro-2-methyl-imidazo[1,2-a]pyridin-6-yl)-2-methyl-4-[4-methyl-4-(methylamino)-1-piperidyl]indazole-7-carboxamide] | < 100 | < 100 | < 100 | < 100 | < 100 | < 100 | < 100 | < 100
CN[C@H]1C[C@@H](C)N(c2ccc(C(=O)Nc3cc(F)c4nc(C)cn4c3)c3nn(C)cc23)C1 (single isomer, unassigned) [Compound 128] | 100 to 1000 | 100 to 1000 | 1000 to 10000 | 100 to 1000 | 1000 to 10000 | 100 to 1000 | 1000 to 10000 | 100 to 1000

Now from value to compound, other results behind:

IC50 [1] [nM] | IC50 [2] [nM] | IC50 [3] [nM] | IC50 [4] [nM] | SMILES | AC50 [1] [nM] | AC50 [2] [nM] | AC50 [3] [nM] | AC50 [4] [nM]
> 10000 | 1000 to 10000 | > 10000 | 1000 to 10000 | CN[C@H]1CCN(c2ccc(C(=O)Nc3cc(F)c4nc(C)cn4c3)c3nn(C)cc23)[C@H]1C (single isomer, unassigned) [Compound 152] | > 10000 | 1000 to 10000 | > 10000 | > 10000
< 100 | < 100 | < 100 | < 100 | COc1c(NC(=O)c2c(F)cc(N3CCC(NC4CC4)CC3)c3cn(C)nc23)cn2cc(C)nc2c1F [Compound 207, 4-[4-(cyclopropylamino)-1-piperidyl]-6-fluoro-N-(8-fluoro-7-methoxy-2-methyl-imidazo[1,2-a]pyridin-6-yl)-2-methyl-indazole-7-carboxamide] | < 100 | < 100 | < 100 | < 100
> 10000 | 100 to 1000 | > 10000 | 100 to 1000 | CCNC1CCN(c2ccc(C(=O)Nc3cc(F)c4nc(C)cn4c3)c3nnn(C)c23)CC1 [Compound 199, 7-[4-(ethylamino)-1-piperidyl]-N-(8-fluoro-2-methylimidazo[1,2-a]-pyridin-6-yl)-1-methylbenzotriazole-4-carboxamide] | > 10000 | 100 to 1000 | > 10000 | 100 to 1000
> 10000 | < 100 | > 10000 | < 100 | Cc1cn2cc(NC(=O)c3c(O)cc(N4CC[C@@H](NC5CC5)C4)c4cn(C)nc34)cc(F)c2n1 [Compound 288, 4-[(3R)-3-(cyclopropylamino)-pyr-rolidin-1-yl]-N-(8-fluoro-2-methyl-imidazo[1,2-a]pyridin-6-yl)-6-hydroxy-2-methyl-indazole-7-carboxamide] | > 10000 | < 100 | > 10000 | < 100
> 10000 | 100 to 1000 | > 10000 | 1000 to 10000 | CN[C@H]1CCN(c2ccc(C(=O)Nc3cc(F)c4nc(C)cn4c3)c3nn(C)cc23)[C@@H]1C (single isomer, unassigned) [Compound 154] | > 10000 | 100 to 1000 | > 10000 | 100 to 1000
1000 to 10000 | < 100 | 100 to 1000 | < 100 | Cc1cn2cc(NC(=O)c3ccc(N4CCC(NC5CC5(C)C)CC4)c4cn(C)nc34)cc(F)c2n1 (centres unmarked) [Compound 205, 4-(4-((2,2-dimethylcyclopropyl)amino)piperidin-1-yl)-N-(8-fluoro-2-methylimidazo[1,2-a]pyridin-6-yl)-2-methyl-2H-indazole-7-carboxamide] | 1000 to 10000 | < 100 | 100 to 1000 | < 100
1000 to 10000 | 100 to 1000 | 1000 to 10000 | 100 to 1000 | Cc1cn2cc(NC(=O)c3ccc(N4CCC(NC5CC5)CC4)c4ccoc34)cc(F)c2n1 [Compound 191, 4-[4-(cyclopropylamino)-1-piperidyl]-N-(8-fluoro-2-methyl-imidazo[1,2-a]pyridin-6-yl) benzofuran-7-carboxamide] | 1000 to 10000 | 100 to 1000 | 1000 to 10000 | < 100
> 10000 | 100 to 1000 | > 10000 | 1000 to 10000 | CN[C@H]1CCN(c2ccc(C(=O)Nc3cc(F)c4nc(C)cn4c3)c3nnn(C)c23)C1 [Compound 166, (S)-N-(8-fluoro-2-methylimidazo-[1,2-a]pyridin-6-yl)-1-methyl-7-(3-(methylamino)pyrrolidin-1-yl)-1H-benzo[d]-[1,2,3]triazole-4-carboxamide] | > 10000 | 100 to 1000 | > 10000 | 100 to 1000
100 to 1000 | 100 to 1000 | 100 to 1000 | 100 to 1000 | Cc1cn2nc(NC(=O)c3ccc(N4CCC(NC5CC5)CC4)c4cn(C)nc34)cc(C)c2n1 [Compound 187, 4-[4-(cyclopropylamino)-1-piperidyl]-N-(2,8-dimethylimidazo-[1,2-b]pyridazin-6-yl)-2-methyl-indazole-7-carboxamide] | 100 to 1000 | 100 to 1000 | 100 to 1000 | 100 to 1000
